Species: Rattus norvegicus
Test: Open TG-GATES - Regimen: Daily Repeat
Type: toxicity, organism-based, Sprague-Dawley
Set-up: regimen Daily Repeat, gender Male, age 6 weeks
Conditions: in vivo, po, 100 mg/kg, route gavage, dose level Middle; for APTT / Bas / Eos / Fbg / Hb / Ht / Lym / MCH / MCHC / MCV / Mono / Neu / PT / Plat / RBC / Ret / WBC: tissue Blood; for KIDNEY_L / KIDNEY_R / KIDNEY_TOTAL: tissue Kidney; for LIVER: tissue Liver; for A/G / ALP / ALT / AST / BUN / CRE / Ca / Cl / DBIL / GLC / IP / K / LDH / Na / PL / RALB / TBIL / TC / TG / TP / gamma-GTP: tissue Plasma

O=C(O)COc1nn(Cc2ccccc2)c2ccccc12 [BENDAZAC]
TERMINAL_BW (72 h, time 3 day): 231.3 g
APTT (72 h, time 3 day): 17.2 s
Bas (72 h, time 3 day): 0%
Eos (72 h, time 3 day): 1%
Fbg (72 h, time 3 day): 205 mg/dL
Hb (72 h, time 3 day): 13.5 g/dL
Ht (72 h, time 3 day): 40.4%
Lym (72 h, time 3 day): 80.6%
MCH (72 h, time 3 day): 21.6 pg
MCHC (72 h, time 3 day): 33.4%
MCV (72 h, time 3 day): 64.8 fL
Mono (72 h, time 3 day): 6.8%
Neu (72 h, time 3 day): 11.8%
PT (72 h, time 3 day): 11.8 s
Plat (72 h, time 3 day): 116.4 x10_4/uL
RBC (72 h, time 3 day): 624.4 x10_4/ul
Ret (72 h, time 3 day): 7.1%
WBC (72 h, time 3 day): 112.6 x10_2/uL
KIDNEY_L (72 h, time 3 day): 1 g
KIDNEY_R (72 h, time 3 day): 1.1 g
KIDNEY_TOTAL (72 h, time 3 day): 2.1 g
LIVER (72 h, time 3 day): 11.7 g
A/G (72 h, time 3 day): 2
ALP (72 h, time 3 day): 987.2 IU/L
ALT (72 h, time 3 day): 39.8 IU/L
AST (72 h, time 3 day): 65.6 IU/L
BUN (72 h, time 3 day): 15.8 mg/dL
CRE (72 h, time 3 day): 0.6 mg/dL
Ca (72 h, time 3 day): 10.8 mg/dL
Cl (72 h, time 3 day): 104.2 meq/L
DBIL (72 h, time 3 day): 0.048 mg/dL
GLC (72 h, time 3 day): 199.8 mg/dL
IP (72 h, time 3 day): 7 mg/dL
K (72 h, time 3 day): 4.5 meq/L
LDH (72 h, time 3 day): 107.6 IU/L
Na (72 h, time 3 day): 140 meq/L
PL (72 h, time 3 day): 153.6 mg/dL
RALB (72 h, time 3 day): 3.8 g/dL
TBIL (72 h, time 3 day): 0.4 mg/dL
TC (72 h, time 3 day): 82 mg/dL
TG (72 h, time 3 day): 79.8 mg/dL
TP (72 h, time 3 day): 5.7 g/dL
gamma-GTP (72 h, time 3 day): 1 IU/L
TERMINAL_BW ([…], time 7 day): 259.9 g
TERMINAL_BW ([…], time 14 day): 309.7 g
TERMINAL_BW ([…], time 28 day): 386.1 g
APTT ([…], time 7 day): 17.3 s
Bas ([…], time 7 day): 0%
Eos ([…], time 7 day): 1.2%
Fbg ([…], time 7 day): 229.2 mg/dL
Hb ([…], time 7 day): 14.1 g/dL
Ht ([…], time 7 day): 41%
Lym ([…], time 7 day): 76.8%
MCH ([…], time 7 day): 21.7 pg
MCHC ([…], time 7 day): 34.3%
MCV ([…], time 7 day): 63.2 fL
Mono ([…], time 7 day): 8.4%
Neu ([…], time 7 day): 14%
PT ([…], time 7 day): 11.7 s
Plat ([…], time 7 day): 139.2 x10_4/uL
RBC ([…], time 7 day): 649.8 x10_4/ul
Ret ([…], time 7 day): 6.8%
WBC ([…], time 7 day): 114.5 x10_2/uL
APTT ([…], time 14 day): 17.7 s
Bas ([…], time 14 day): 0%
Eos ([…], time 14 day): 1%
Fbg ([…], time 14 day): 213.4 mg/dL
Hb ([…], time 14 day): 14.6 g/dL
Ht ([…], time 14 day): 43.2%
Lym ([…], time 14 day): 83.2%
MCH ([…], time 14 day): 20.5 pg
MCHC ([…], time 14 day): 33.9%
MCV ([…], time 14 day): 60.4 fL
Mono ([…], time 14 day): 4.8%
Neu ([…], time 14 day): 11.4%
PT ([…], time 14 day): 11.4 s
Plat ([…], time 14 day): 126.3 x10_4/uL
RBC ([…], time 14 day): 715 x10_4/ul
Ret ([…], time 14 day): 2.9%
WBC ([…], time 14 day): 124.2 x10_2/uL
APTT ([…], time 28 day): 18.1 s
Bas ([…], time 28 day): 0%
Eos ([…], time 28 day): 1.2%
Fbg ([…], time 28 day): 216.6 mg/dL
Hb ([…], time 28 day): 15.6 g/dL
Ht ([…], time 28 day): 45.8%
Lym ([…], time 28 day): 87%
MCH ([…], time 28 day): 19.5 pg
MCHC ([…], time 28 day): 34%
MCV ([…], time 28 day): 57.2 fL
Mono ([…], time 28 day): 2.2%
Neu ([…], time 28 day): 9%
PT ([…], time 28 day): 12 s
Plat ([…], time 28 day): 113.7 x10_4/uL
RBC ([…], time 28 day): 801.2 x10_4/ul
Ret ([…], time 28 day): 2.2%
WBC ([…], time 28 day): 131.2 x10_2/uL
KIDNEY_L ([…], time 7 day): 1.2 g
KIDNEY_R ([…], time 7 day): 1.1 g
KIDNEY_TOTAL ([…], time 7 day): 2.3 g
KIDNEY_L ([…], time 14 day): 1.2 g
KIDNEY_R ([…], time 14 day): 1.3 g
KIDNEY_TOTAL ([…], time 14 day): 2.5 g
KIDNEY_L ([…], time 28 day): 1.4 g
KIDNEY_R ([…], time 28 day): 1.4 g
KIDNEY_TOTAL ([…], time 28 day): 2.8 g
LIVER ([…], time 7 day): 13.1 g
LIVER ([…], time 14 day): 14.8 g
LIVER ([…], time 28 day): 17.3 g
A/G ([…], time 7 day): 2
ALP ([…], time 7 day): 927.8 IU/L
ALT ([…], time 7 day): 31.6 IU/L
AST ([…], time 7 day): 55.8 IU/L
BUN ([…], time 7 day): 18.8 mg/dL
CRE ([…], time 7 day): 0.5 mg/dL
Ca ([…], time 7 day): 11.1 mg/dL
Cl ([…], time 7 day): 105.6 meq/L
DBIL ([…], time 7 day): 0.014 mg/dL
GLC ([…], time 7 day): 206 mg/dL
IP ([…], time 7 day): 6.6 mg/dL
K ([…], time 7 day): 4.4 meq/L
LDH ([…], time 7 day): 110.8 IU/L
Na ([…], time 7 day): 140.6 meq/L
PL ([…], time 7 day): 141 mg/dL
RALB ([…], time 7 day): 3.8 g/dL
TBIL ([…], time 7 day): 0.4 mg/dL
TC ([…], time 7 day): 71.8 mg/dL
TG ([…], time 7 day): 108.6 mg/dL
TP ([…], time 7 day): 5.7 g/dL
gamma-GTP ([…], time 7 day): 1 IU/L
A/G ([…], time 14 day): 1.6
ALP ([…], time 14 day): 909.2 IU/L
ALT ([…], time 14 day): 32.2 IU/L
AST ([…], time 14 day): 63 IU/L
BUN ([…], time 14 day): 18.8 mg/dL
CRE ([…], time 14 day): 0.6 mg/dL
Ca ([…], time 14 day): 10.3 mg/dL
Cl ([…], time 14 day): 106 meq/L
DBIL ([…], time 14 day): 0.04 mg/dL
GLC ([…], time 14 day): 198.6 mg/dL
IP ([…], time 14 day): 6.5 mg/dL
K ([…], time 14 day): 4.5 meq/L
LDH ([…], time 14 day): 108 IU/L
Na ([…], time 14 day): 140.8 meq/L
PL ([…], time 14 day): 145.6 mg/dL
RALB ([…], time 14 day): 3.8 g/dL
TBIL ([…], time 14 day): 0.4 mg/dL
TC ([…], time 14 day): 68 mg/dL
TG ([…], time 14 day): 125.4 mg/dL
TP ([…], time 14 day): 6.2 g/dL
gamma-GTP ([…], time 14 day): 1.8 IU/L
A/G ([…], time 28 day): 1.4
ALP ([…], time 28 day): 669.2 IU/L
ALT ([…], time 28 day): 31.4 IU/L
AST ([…], time 28 day): 62.4 IU/L
BUN ([…], time 28 day): 20 mg/dL
CRE ([…], time 28 day): 0.6 mg/dL
Ca ([…], time 28 day): 9.7 mg/dL
Cl ([…], time 28 day): 103.8 meq/L
DBIL ([…], time 28 day): 0.02 mg/dL
GLC ([…], time 28 day): 189.2 mg/dL
IP ([…], time 28 day): 5.7 mg/dL
K ([…], time 28 day): 4.4 meq/L
LDH ([…], time 28 day): 102.8 IU/L
Na ([…], time 28 day): 139.6 meq/L
PL ([…], time 28 day): 136.8 mg/dL
RALB ([…], time 28 day): 3.7 g/dL
TBIL ([…], time 28 day): 0.4 mg/dL
TC ([…], time 28 day): 61.4 mg/dL
TG ([…], time 28 day): 154.4 mg/dL
TP ([…], time 28 day): 6.2 g/dL
gamma-GTP ([…], time 28 day): 1.2 IU/L

— ChEMBL document CHEMBL3885861, “Open TG-GATES”
